Data set [1] relates to IFNα-stimulated phosphorylated STAT1. Nature of the data set: IFNα-stimulated phosphorylation STAT1 assay in hPBMC (flow cytometry, CD4+ T cells). The format is cell-based, Human. The method, then: Human peripheral blood mononuclear cells (hPBMC) were seeded at a cell density of 1x10^5 cells/well and placed in an incubator at 37°C for 90 minutes. Then different concentrations of compounds were added to the cells, wherein the concentration range of each compound started from 2 µM, which was serially diluted 5-fold to obtain a total of 8 concentration gradients. The compounds and cells were incubated at 37 °C for 30 minutes. hPBMC were stimulated with IFN-a (1000 U/ml), and then the level of phosphorylated STAT1 in CD4+ T cells was detected by flow cytometry to evaluate the inhibitory activity of the compound on the IFN-α pathway. The results of the in vitro cell activity assay of the free base of the compound of the present disclosure are shown in Table 4: Table 4: In vitro cell activity test results of the compound of the present disclosure (IC50)
(In flow cytometry, cells or beads pass a laser one at a time.)

The target of data set [2] is T1, TYK2 protein (His-TVMV-TYK2 JH2 (575-869)) (Homo sapiens, UniProt P29597).
T1 construct: TYK2 protein (His-TVMV-TYK2 JH2 (575-869))
Kind of data set: Tyk2 JH2 enzyme activity test (HTRF tracer displacement). The class given is binding. The method, then: To a buffer solution containing 20 mM of Hepes pH 7.5, 10 mM of MgCl2, 0.015% of Brij-35, 2 mM of DTT and 50 µg/ mL of BSA were added 0.5 nM of TYK2 protein (His-TVMV-TYK2 JH2 (575-869)), 0.2 nM of terbium-labeled His antibody, fluorescein-labeled kinase tracer at the relevant Kd value, and the test compound. The test system was incubated at room temperature for 90 minutes. Subsequently, the generated HTRF (homogeneous time-resolved fluorescence) signal, i.e., the ratio of the fluorescence intensity of the fluorescein acceptor (520 nm) and the terbium donor (495 nm) at the emission wavelength, was measured on an Envision plate reader, and the IC50 value was calculated based on this. The results of in vitro enzyme activity assay of the free base of the compound of the present disclosure are shown in Table 3: Table 3: In vitro enzyme activity test results of the compound of the present disclosure (IC50)
Background: TR-FRET usually uses a lanthanide donor and a delayed reading to cut background.

A short description of data set [3]: Pharmacokinetic study, oral administration, dog. The class given is in vivo. To be noted: plasma, 25 mg/kg, 25 mpk. The method, then:
(§1) The purpose of this experiment is to study the pharmacokinetics of the test substance in the plasma of male CD-1 mice, SD rats and […] after intravenous injection and oral administration.
(§2) The animals were randomly divided into two groups, with 2 males in each group. The compounds were formulated into the specified formulations (the vehicle was 5 mg/mL of 10% sulfobutyl ether-β-cyclodextrin), and the oral formulations were clear or homogeneous suspensions.
(§3) Whole blood samples were collected from the animals by jugular vein puncture or saphenous vein at 5, 15, 30 minutes, 1, 2, 4, 8, and 24 hours after administration. The whole blood samples were added into centrifuge tubes containing anticoagulants, and centrifuged at 3000g for 15 minutes at 4°C. The supernatant plasma was collected and quickly frozen on dry ice and then stored in a refrigerator at -70 ± 10°C until LC-MS/MS analysis.
(§4) The pharmacokinetic software WinNonlin™ Version 6.3.0 (Pharsight, Mountain View, CA) was used to process the plasma drug concentration data of the compound in a non-compartmental model. The peak concentration (Cmax) and time to peak (Tmax) as well as last measurable time point were directly obtained from the plasma drug concentration-time graph.
(§5) The following pharmacokinetic parameters were calculated using the log-linear trapezoidal method: plasma clearance rate (CL), volume of distribution (Vd), elimination phase half-life (T1/2), mean residence time of drug in vivo from 0 to the terminal time point (MRT0-last), mean residence time of drug in vivo from 0 to infinite time (MRT0-inf), area under the time-plasma concentration curve from 0 to the terminal time point (AUC0-last), area under the time-plasma concentration curve from 0 to infinite time (AUC0-inf), and bioavailability (F). The experimental results of the present disclosure are shown in Table 5: Table 5: Pharmacokinetic test results

Data set [4] can be described thus: Pharmacokinetic study, oral administration, mouse. The format is in vivo, CD-1 mice. To be noted: plasma, 10 mg/kg, 10 mpk. The method, then:
as §1, §2, §3, §4, §5

Data set [5] can be described thus: Pharmacokinetic study, oral administration, rat. The format is in vivo, SD rats. The conditions noted are these: plasma, 30 mg/kg, 30 mpk. The method, then:
as §1, §2, §3, §4, §5

Data on two compounds can be found in patent publication EP4640679A1, “SALT FORM AND CRYSTAL FORM OF PYRIDINE MULTI-SUBSTITUTED COMPOUND AND PREPARATION METHOD THEREFOR” (Usynova Pharmaceuticals Ltd., priority 2022, dated 2024).

T1 sequence (P29597 575-869, species assumed): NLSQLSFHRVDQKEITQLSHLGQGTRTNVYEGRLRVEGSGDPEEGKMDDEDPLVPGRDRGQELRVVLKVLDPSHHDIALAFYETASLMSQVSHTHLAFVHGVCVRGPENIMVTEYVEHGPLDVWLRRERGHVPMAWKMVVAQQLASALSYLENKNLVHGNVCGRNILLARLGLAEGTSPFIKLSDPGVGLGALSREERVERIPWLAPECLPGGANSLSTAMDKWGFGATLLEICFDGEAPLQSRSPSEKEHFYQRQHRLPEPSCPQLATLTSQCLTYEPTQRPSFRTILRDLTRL

What is called IC50 is the concentration needed to halve the response being measured. With `[2H]C([2H])([2H])CC(=O)c1cnc(NC(=O)C2CC2)cc1Nc1cccc(-c2cnc(N=S(C)(C)=O)cn2)c1OC`, the IC50 in data set [1] (Homo sapiens, CD4+ T, read-out: IFNα-stimulated phosphorylated STAT1 (IC50 nM)) came out at 1.1 nM; in data set [2] (HTRF, 90 minutes at room temperature), 0.04 nM. For the same compound, in data set [1] (conclusion in words), the “Tyk2-related cellular activity on IFNα-stimulated phosphorylated STAT1” value was “strong Tyk2-related cellular activity”. Also, the “inhibitory activity against Tyk2 JH2” value in data set [2] (conclusion in words) is “strong inhibitory activity”.
For orientation: AUC(0-t) means exposure summed from dosing to a finite time, without extrapolation to infinity. A low value points to less exposure. A word on the Cmax: it is the maximum level reached in the sampled fluid or tissue. One may read the Tmax as the time at which the peak concentration occurs. Take `[2H]C([2H])([2H])CC(=O)c1cnc(NC(=O)C2CC2)cc1Nc1cccc(-c2cnc(N=S(C)(C)=O)cn2)c1OC` [Compound of formula (I)]: in data set [3], the AUC(0-t) was 66.5 µM·h, the Cmax stood at 16.8 µM, the Tmax was 120 min and the bioavailability was 103%. Also, in data set [4], the AUC(0-t) is 76 µM·h, the highest concentration (Cmax) was determined as 32.4 µM, the Tmax turned out to be 30 min and the bioavailability turned out to be 81%. Besides, in data set [5], the area under the curve AUC(0-t) turned out to be 231 µM·h, the peak level (Cmax) was 44.5 µM, the Tmax worked out at 45 min and the bioavailability was found to be 65%.
